Converted amounts (≈) assume the structure as drawn.
Legend:
Format in all cases: functional
Pichia kudriavzevii = assay: Antifungal activity against Candida krusei GIM2.1 assessed as fungal growth inhibition by CLSI protocol based method
Nakaseomyces glabratus = assay: Antifungal activity against Candida glabrata assessed as fungal growth inhibition by CLSI protocol based method
Candida parapsilosis = assay: Antifungal activity against Candida parapsilosis GIM2.190 assessed as fungal growth inhibition by CLSI protocol based method; settings: Lodderomyces parapsilosis
Candida albicans [1] = assay: Antifungal activity against Candida albicans ATCC SC5314 assessed as fungal growth inhibition by CLSI protocol based method
Candida tropicalis = assay: Antifungal activity against Candida tropicalis CGMCC 2.3739 assessed as fungal growth inhibition by CLSI protocol based method
Candida albicans [2] = assay: Antifungal activity against Candida albicans CPCC400616 assessed as fungal growth inhibition by CLSI protocol based method
Cryptococcus neoformans = assay: Antifungal activity against Cryptococcus neoformans CGMCC2.3161 assessed as fungal growth inhibition by CLSI protocol based method

| Compound | MIC (Pichia kudriavzevii) | MIC (Nakaseomyces glabratus) | MIC (Candida parapsilosis) | MIC (Candida albicans [1]) | MIC (Candida tropicalis) | MIC (Candida albicans [2]) | MIC (Cryptococcus neoformans) |
| --- | --- | --- | --- | --- | --- | --- | --- |
| O=C(NC(Cn1ccnc1)C(=O)c1ccccc1)c1ccc(N2CCN(c3ccccc3)CC2)cc1 (configuration not stated) | > 64 µg/mL | > 64 µg/mL | > 64 µg/mL | > 64 µg/mL | > 64 µg/mL | > 64 µg/mL | > 64 µg/mL |
| O=C(NC(Cn1ccnc1)C(=O)c1ccccc1)c1nc2ccc(Br)cc2s1 (configuration not stated) | > 64 µg/mL | > 64 µg/mL | > 64 µg/mL | 32 µg/mL (≈ 70.3 µM) | > 64 µg/mL | > 64 µg/mL | > 64 µg/mL |
| O=C(NC(Cn1ccnc1)C(=O)c1ccc(OC(F)(F)F)cc1)c1ccc(-c2ccc(Cl)cc2)s1 (configuration not stated) | > 64 µg/mL | > 64 µg/mL | > 64 µg/mL | 32 µg/mL (≈ 61.5 µM) | > 64 µg/mL | 32 µg/mL (≈ 61.5 µM) | > 64 µg/mL |
| O=C(NC(Cn1ccnc1)C(=O)c1ccccc1)c1ccc(-c2ccccc2)o1 (configuration not stated) | > 64 µg/mL | > 64 µg/mL | > 64 µg/mL | 16 µg/mL (≈ 41.5 µM) | > 64 µg/mL | 16 µg/mL (≈ 41.5 µM) | > 64 µg/mL |
| O=C(NC(Cn1ccnc1)C(=O)c1ccccc1)c1cnc(-c2ccccc2)o1 (configuration not stated) | > 64 µg/mL | > 64 µg/mL | > 64 µg/mL | 32 µg/mL (≈ 82.8 µM) | > 64 µg/mL | 64 µg/mL (≈ 166 µM) | > 64 µg/mL |
| O=C(NC(Cn1ccnc1)C(=O)c1ccc(F)cc1F)c1ccc(-c2ccc(Cl)cc2)s1 (configuration not stated) | > 64 µg/mL | > 64 µg/mL | > 64 µg/mL | 0.5 µg/mL (≈ 1.06 µM) | > 64 µg/mL | > 64 µg/mL | 2 µg/mL (≈ 4.24 µM) |
| O=C(NC(Cn1ccnc1)C(=O)c1ccccc1)c1ccc(-c2ccc(F)cc2)s1 (configuration not stated) | > 64 µg/mL | > 64 µg/mL | > 64 µg/mL | 1 µg/mL (≈ 2.38 µM) | 32 µg/mL (≈ 76.3 µM) | 32 µg/mL (≈ 76.3 µM) | > 64 µg/mL |
| O=C(NC(Cn1ccnc1)C(=O)c1ccccc1)c1ccc(-c2ccc(F)cc2F)s1 (configuration not stated) | > 64 µg/mL | > 64 µg/mL | > 64 µg/mL | 8 µg/mL (≈ 18.3 µM) | > 64 µg/mL | > 64 µg/mL | > 64 µg/mL |
| O=C(NC(Cn1ccnc1)C(=O)c1ccccc1)c1cc2ccccc2o1 (configuration not stated) | > 64 µg/mL | > 64 µg/mL | > 64 µg/mL | > 64 µg/mL | > 64 µg/mL | > 64 µg/mL | > 64 µg/mL |
| O=C(NC(Cn1ccnc1)C(=O)c1ccccc1)c1ccc(-c2ccccc2Cl)s1 (configuration not stated) | > 64 µg/mL | > 64 µg/mL | > 64 µg/mL | > 64 µg/mL | > 64 µg/mL | > 64 µg/mL | > 64 µg/mL |
| O=C(NC(Cn1ccnc1)C(=O)c1ccccc1)c1ccc2ccccc2c1 (configuration not stated) | > 64 µg/mL | > 64 µg/mL | > 64 µg/mL | 0.5 µg/mL (≈ 1.35 µM) | 0.5 µg/mL (≈ 1.35 µM) | 2 µg/mL (≈ 5.41 µM) | 32 µg/mL (≈ 86.6 µM) |
| O=C(NC(Cn1ccnc1)C(=O)c1ccccc1)c1ccc(-c2ccc(OC(F)(F)F)cc2)s1 (configuration not stated) | > 64 µg/mL | > 64 µg/mL | > 64 µg/mL | 0.5 µg/mL (≈ 1.03 µM) | 32 µg/mL (≈ 65.9 µM) | 16 µg/mL (≈ 33 µM) | > 64 µg/mL |
| CCOc1ccc(-c2ccc(C(=O)NC(Cn3ccnc3)C(=O)c3ccccc3)s2)cc1 (configuration not stated) | > 64 µg/mL | > 64 µg/mL | > 64 µg/mL | > 64 µg/mL | > 64 µg/mL | > 64 µg/mL | > 64 µg/mL |
| O=C(NC(Cn1ccnc1)C(=O)c1ccccc1)c1ccc(-c2ccsc2)cc1 (configuration not stated) | 16 µg/mL (≈ 39.9 µM) | > 64 µg/mL | > 64 µg/mL | 1 µg/mL (≈ 2.49 µM) | 2 µg/mL (≈ 4.98 µM) | 2 µg/mL (≈ 4.98 µM) | 8 µg/mL (≈ 19.9 µM) |
| O=C(NC(Cn1ccnc1)C(=O)c1ccccc1)c1noc2c1CCc1ccccc1-2 (configuration not stated) | > 64 µg/mL | 16 µg/mL (≈ 38.8 µM) | 32 µg/mL (≈ 77.6 µM) | 8 µg/mL (≈ 19.4 µM) | 4 µg/mL (≈ 9.7 µM) | 8 µg/mL (≈ 19.4 µM) | 16 µg/mL (≈ 38.8 µM) |
| O=C(NC(Cn1ccnc1)C(=O)c1ccccc1)c1ccc(-c2ccc(Cl)cc2Cl)s1 (configuration not stated) | > 64 µg/mL | > 64 µg/mL | > 64 µg/mL | > 64 µg/mL | > 64 µg/mL | > 64 µg/mL | > 64 µg/mL |

Reference: ChEMBL document CHEMBL4828738, “Design, synthesis and evaluation of novel 5-phenylthiophene derivatives as potent fungicidal of Candida albicans and antifungal reagents of fluconazole-resistant fungi” (Eur J Med Chem, 2021)
